The values below come from publication PMC11053489 (Viruses, 2024).

By EC50 is commonly meant the concentration at which the effect is half-maximal. As a reminder, the EC90 is the concentration at which the effect reaches the 90% level.

Series [1] relates to SARS-CoV-2 (hCoV-19/USA-WA1/2020) in Vero CCL-81 cells. The series is described as follows: microbe, parasite or virus in culture. The class given is cell-based. The following applies: for anti-SARS-CoV-2 activity (in words), concentrations up to 100 μM: Vero CCL-81 cells.
The nature of series [2]: in vitro. The following applies: African green monkey.
The conditions of series [3]: human, in vivo.
Series [4] can be described thus: MTS cytotoxicity assay, Vero CCL-81 cells. The settings on record: African green monkey. In general terms: Formazan colour is commonly taken as a measure of viable cells.
Series [5] in a line: Peak plasma concentration. The settings on record: human, in vivo.
The conditions of series [6]: cited from earlier work; for Fun: Table 3, 1 – fraction bound reported in the literature, ref column Refs of Table 3.
For series [7], the system named is SARS-CoV-2 (hCoV-19/USA-WA1/2020) in Caco-2 cells. The series is described as follows: microbe, parasite or virus in culture. The following applies: Severe acute respiratory syndrome coronavirus 2, Caco-2, 72 h; for EC50: read-out: Caco-2 SARS-CoV-2 EC50; for EC90: read-out: Caco-2 SARS-CoV-2 EC90.
Series [8] has the same test system. The following applies: Caco-2.
For series [9], the system named is SARS-CoV-2 (hCoV-19/USA-WA1/2020) in Calu-3 cells. The series is described as follows: microbe, parasite or virus in culture. The class given is cell-based. The following applies: Severe acute respiratory syndrome coronavirus 2, Calu-3, MOI 0.01, 72 h, 2% FBS; for EC50: read-out: Calu-3 SARS-CoV-2 EC50; for EC90: read-out: Calu-3 SARS-CoV-2 EC90.
The nature of series [10]: in vitro. The following applies: human.
A short description of series [11]: in vitro. The settings on record: human, Caco-2.
Series [12] can be described thus: in vitro. The settings on record: human. The source holds these as a separate data set.
The mark [13] stands for this setting: Severe acute respiratory syndrome coronavirus 2, Table 3, drugs tested only in Vero CCL-81, MOI 0.1, 48 h, read-out: Vero CCL-81 Cells EC50.
Setting [14] is: Severe acute respiratory syndrome coronavirus 2, Table 3, drugs tested only in Vero CCL-81, MOI 0.1, 48 h, read-out: Vero CCL-81 Cells EC90.
[15] abbreviates: Severe acute respiratory syndrome coronavirus 2, Table 1 drugs, MOI 0.1, 48 h, 2% FBS, read-out: Vero CCL-81 SARS-CoV-2 EC50.
Setting [16] is: Severe acute respiratory syndrome coronavirus 2, Table 1 drugs, MOI 0.1, 48 h, 2% FBS, read-out: Vero CCL-81 SARS-CoV-2 EC90.
Where [17] appears, read: NAs and nucleoside-base precursors, evaluated up to 20 μM.

The structures appear in SMILES notation. Structures can show the parent of a compound that is named as a salt. Where two headings read alike, the source gives them in different places.

With `CC#CC(=O)N1CCC[C@H]1c1nc(-c2ccc(C(=O)Nc3ccccn3)cc2)c2c(N)nccn12` [Acalabrutinib], the EC50 in series [1] (setting [13]) was 11.1 µM. The EC90 in series [1] (setting [14]) came to 70.9 µM. The same molecule had a CC50 at 3 days in “in vitro [2]” of more than 100 µM. The “Cmax (μM) {unbound}” value in series [3] came out at 0.017 µM.
Turning to `NC12CC3CC(CC(C3)C1)C2` [Amantadine], in series [4], the CC50 at 3 days is more than 100 µM. The “Cmax (μM) {unbound}” value in series [5] was determined as 0.002 µM.
As for `CN(Cc1cc(Br)cc(Br)c1N)C1CCCCC1` [Bromhexine], the EC50 in [1] (setting [13]) stood at 0.8 µM. Besides, in [1] (setting [14]), the 90% effect concentration (EC90) came out at 6.2 µM. For the same molecule, the CC50 at 3 days in “in vitro [2]” was more than 100 µM. Moreover, in [3], the “Cmax (μM) {unbound}” value was found to be 0.005 µM.
On to `CCCCCc1cc(O)c2c(c1)OC(C)(C)c1ccc(C)cc1-2` [Cannabinol], for which the concentration for a half-maximal effect (EC50) in [1] (Severe acute respiratory syndrome coronavirus 2, 48 h, read-out: Vero CCL-81 Cells EC50) was 2.7 µM. In [1] (Severe acute respiratory syndrome coronavirus 2, 48 h, read-out: Vero CCL-81 Cells EC90), the 90% effect concentration (EC90) was 8.7 µM. Also, in [6], the Fun is 0.1. The molecule further gave a CC50 in “in vitro [2]” of 37.3 µM.
With `CN(C)CCC(c1ccc(Cl)cc1)c1ccccn1` (stereo not drawn) [Chlorpheniramine maleate], the EC50 in series [1] (setting [13]) is 31 µM. The EC90 in series [1] (setting [14]) was 104 µM. In addition, the Fun in series [6] is recorded as 0.28. In addition, the CC50 at 3 days in [4] is more than 100 µM. The “Cmax (μM) {unbound}” value in series [5] turned out to be 0.008 µM.
Regarding `CC(C)C(=O)OCC(=O)[C@@]12O[C@H](C3CCCCC3)O[C@@H]1C[C@H]1[C@@H]3CCC4=CC(=O)C=C[C@]4(C)[C@H]3[C@@H](O)C[C@@]12C` [Ciclesonide], the concentration for a half-maximal effect (EC50) in [1] (setting [13]) was determined as 4.1 µM. Besides, the EC90 in [1] (setting [14]) came out at 7.8 µM. The molecule also had a CC50 at 3 days in the series “in vitro [2]” of 33.9 µM. In addition, the “Cmax (μM) {unbound}” value in series [3] is recorded as 0.0000/1 μM.
As for `CC(C)/N=c1\cc2n(-c3ccc(Cl)cc3)c3ccccc3nc-2cc1Nc1ccc(Cl)cc1` [Clofazimine], the EC50 in [1] (setting [13]) was determined as 0.5 µM. Further, the EC90 in series [1] (setting [14]) was 3 µM. Besides, in series [6], the Fun is recorded as 0.001. In “in vitro [2]”, the CC50 at 3 days was found to be 34.3 µM. Also, the “Cmax (μM) {unbound}” value in series [5] was 0.002 µM.
`O=C(O)Cc1ccccc1Nc1c(Cl)cccc1Cl` [Diclofenac sodium]: the EC50 in [1] (setting [13]) was found to be 97.6 µM. Moreover, in series [1] (setting [14]), the EC90 was 141 µM. This molecule also yielded a CC50 at 3 days in series [4] of more than 100 µM. In addition, the “Cmax (μM) {unbound}” value in [5] is 0.012 µM.
Turning to `C[C@H]1c2cccc(O)c2C(=O)C2=C(O)[C@]3(O)C(=O)C(C(N)=O)=C(O)[C@@H](N(C)C)[C@@H]3[C@@H](O)[C@@H]21` [Doxycycline], the EC50 in [1] (setting [13]) came to 69.3 µM. The EC90 in [1] (setting [14]) amounted to 102 µM. The Fun in series [6] was 0.15. This molecule had a CC50 at 3 days in series [4] not below 100 µM. Besides, the “Cmax (μM) {unbound}” value in series [5] was found to be 0.55 µM.
Turning to `COC(=O)N[C@H](C(=O)N1CCC[C@H]1c1nc(-c2ccc3c(c2)O[C@@H](c2ccccc2)n2c-3cc3cc(-c4c[nH]c([C@@H]5CCCN5C(=O)[C@@H](NC(=O)OC)C(C)C)n4)ccc32)c[nH]1)C(C)C` [Elbasivir], in series [1] (setting [13]), the EC50 turned out to be 3.4 µM. The EC90 in series [1] (setting [14]) worked out at 12.5 µM. The molecule also returned a CC50 at 3 days in the series “in vitro [2]” of more than 100 µM. Besides, the “Cmax (μM) {unbound}” value in series [3] came out at 0.003 µM.
As to `NC(N)=Nc1nc(CSCCC(N)=NS(N)(=O)=O)cs1` [Famotidine], the EC50 in series [1] (setting [13]) turned out to be 160 µM. Besides, the Fun in series [6] was 0.8. In series [4], this molecule registered a CC50 at 3 days of more than 100 µM. Also, the “Cmax (μM) {unbound}” value in series [5] was 0.16 µM.
Turning to `CN1CC[C@H](c2c(O)cc(O)c3c(=O)cc(-c4ccccc4Cl)oc23)[C@H](O)C1` [Flavopiridol], in [1] (setting [13]), the EC50 turned out to be 0.1 µM. Further, the EC90 in series [1] (setting [14]) was determined as 1.1 µM. In addition, in series [6], the Fun is 0.05. For the same molecule, the CC50 at 3 days in [4] was determined as 0.031 µM. In addition, in series [5], the “Cmax (μM) {unbound}” value was found to be 0.096 µM.
As for `O=C1O[C@H]([C@@H](O)CO)C(O)=C1O` [L-ascorbic acid], in series [1], the “anti-SARS-CoV-2 activity (in words), concentrations up to 100 μM” value (“anti-SARS-CoV-2 activity (in words)” for short) is “inactive”.
For the molecule `COc1ccc2[nH]cc(CCNC(C)=O)c2c1` [Melatonin], the 50% effective concentration (EC50) in [1] (setting [13]) is 22 µM. In series [6], the Fun is on record as 0.22. Besides, the CC50 at 3 days in [4] is more than 100 µM. In addition, the “Cmax (μM) {unbound}” value in series [5] turned out to be 0.005 µM.
As to `CC(C)C(=O)OC[C@H]1O[C@@H](n2ccc(NO)nc2=O)[C@H](O)[C@@H]1O` [Molnupiravir (NHC), Molnupiravir], the 50% effective concentration (EC50) in series [7] was determined as 1.7 µM; in series [1] (setting [15]), 0.6 µM; in series [9], 0.4 µM. For the same molecule, the values for the 90% effect concentration (EC90) in series [7], in [1] (setting [16]) and in series [9] were 12.2 µM, 1.4 µM and 1.8 µM, respectively. The “Caco-2 Unbound Cmax/EC50” value in series [8] stood at 5.3. In addition, in series [6] (plasma), the “Fun (unbound fraction of drug in plasma)” value is on record as 1. Further, in series [3], the “Cmax (μM) {unbound}” value is 7.10 µM.
With `CC(C)(O)c1ccccc1CC[C@@H](SCC1(CC(=O)O)CC1)c1cccc(/C=C/c2ccc3ccc(Cl)cc3n2)c1` [Montelukast sodium], the “Cmax (μM) {unbound}” value in series [5] is 0.009 µM.
`CC(=O)Oc1ccccc1C(=O)Nc1ncc([N+](=O)[O-])s1` [Nitazoxanide]: the results for the EC50 in series [7], in series [1] (setting [15]) and in series [9] were 4.4 µM, 1.4 µM and 22.8 µM, respectively. The EC90 was determined as 11.1 µM in [7], 3.9 µM in series [1] (setting [16]) and 42.9 µM in series [9]. Also, the “Caco-2 Unbound Cmax/EC50” value in series [8] is given as 0.078. The “Fun (unbound fraction of drug in plasma)” value in series [6] (Table 1, ref column Refs of Table 1) is listed as 0.01. Also, the results for the CC50 at 3 days in the series “in vitro [2]”, in “in vitro [10]” and in the series “in vitro [11]” were 8.7 µM, 49.8 µM and 7.2 µM, respectively. In series [3], the “Cmax (μM) {unbound}” value came out at 0.014 µM. The CC50 at 5 days in “in vitro [12]” is 8.3 µM.
On to `CC(C)C(=O)OC[C@H]1O[C@@](C#N)(c2ccc3c(N)ncnn23)[C@H](O)[C@@H]1O` [Obeldesivir], for which the “Caco-2 Unbound Cmax/EC50” value in series [8] was 72. In series [3], the “Cmax (μM) {unbound}” value is 5.79 µM.
Regarding `COC[C@H]1C[C@@H](c2ncc(-c3ccc4c(c3)COc3cc5c(ccc6nc([C@@H]7CC[C@H](C)N7C(=O)[C@@H](NC(=O)OC)C(C)C)[nH]c65)cc3-4)[nH]2)N(C(=O)[C@H](NC(=O)OC)c2ccccc2)C1` [Velpatasvir], the EC50 in series [1] (setting [13]) worked out at 19.1 µM. The EC90 in [1] (setting [14]) is 79.6 µM. In the series “in vitro [2]”, this molecule came in with a CC50 at 3 days of more than 100 µM. Further, the “Cmax (μM) {unbound}” value in series [3] was 0.001 µM.
As for `O=C(O)COCCN1CCN(C(c2ccccc2)c2ccc(Cl)cc2)CC1` (stereo not drawn) [cetirizine], the “anti-SARS-CoV-2 activity (in words)” value in series [1] is “inactive”.
Still for that read-out and setting: for `C[C@@H]1C[C@H]2[C@@H]3CCC4=CC(=O)C=C[C@]4(C)[C@@]3(F)[C@@H](O)C[C@]2(C)[C@@]1(O)C(=O)CO` [dexamethasone] the value was “inactive”.
As to `Nc1nc(=O)n([C@@H]2CS[C@H](CO)O2)cc1F` [emtricitabine], in series [1] (setting [17]), the “antiviral activity in Vero CCL-81 cells (in words)” value (from here on “antiviral activity”) is recorded as “lack of antiviral activity”.
On the same count and under the same terms, under `Nc1ccn([C@@H]2CS[C@H](CO)O2)c(=O)n1` [lamivudine] stands “lack of antiviral activity”.
Regarding `c1cc(CN2CCCNCCNCCCNCC2)ccc1CN1CCCNCCNCCCNCC1` [plerixafor], the “anti-SARS-CoV-2 activity (in words)” value in series [1] is “inactive”.
For `NC(=O)c1ncn([C@@H]2O[C@H](CO)[C@@H](O)[C@H]2O)n1` [ribavirin], the “antiviral activity” value in [1] (setting [17]) is “lack of antiviral activity”.
For `CC(C)OC(=O)[C@H](C)N[P@](=O)(OC[C@H]1O[C@@H](n2ccc(=O)[nH]c2=O)[C@](C)(F)[C@@H]1O)Oc1ccccc1` [sofosbuvir], in series [1], the “antiviral activity” value is given as “lack of antiviral activity”.
Same read-out and setting: for `CC(C)OC(=O)[C@H](C)N[P@](=O)(CO[C@H](C)Cn1cnc2c(N)ncnc21)Oc1ccccc1` [tenofovir alafenamide] the value was “lack of antiviral activity”.
With `CC(C)OC(=O)OCOP(=O)(CO[C@H](C)Cn1cnc2c(N)ncnc21)OCOC(=O)OC(C)C` [tenofovir disoproxil fumarate], the “antiviral activity” value in [1] (setting [17]) was “lack of antiviral activity”.
